Values joined by “and” are separate entries in the source; they are usually repeats but may differ in a detail not shown here. Identical values can stand only once. Toxic doses and inconclusive results are not listed.
System: L1210 leukemia ip in BDF1 mice, survival T/C
Experiment: NCI In Vivo Anticancer Drug Screen. Data for tumor model L1210 Leukemia (intraperitoneal) in B6D2F1 (BDF1) mice
Details: endpoint: mean survival time, higher = longer survival
Method in brief: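 Each compound was tested against a transplantable tumor grown in mice. The endpoint was survival, with treated animals benchmarked against vehicle controls as a simple ratio.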

[1] = dose: 100.0 mg/kg/injection, schedule: Q04DX002 (ip), vehicle: Klucel (hydroxypropylcellulose) (HPC)
[2] = dose: 200.0 mg/kg/injection, schedule: Q04DX002 (ip), vehicle: Klucel (hydroxypropylcellulose) (HPC)
[3] = dose: 50.0 mg/kg/injection, schedule: Q01DX009 (ip), vehicle: saline with Tween-80
[4] = dose: 100.0 mg/kg/injection, schedule: Q01DX009 (ip), vehicle: saline with Tween-80
[5] = dose: 200.0 mg/kg/injection, schedule: Q01DX009 (ip), vehicle: saline with Tween-80
[6] = dose: 100.0 mg/kg/injection, schedule: Q01DX001 (ip), vehicle: carboxymethylcellulose (CMC)
[7] = dose: 200.0 mg/kg/injection, schedule: Q01DX001 (ip), vehicle: carboxymethylcellulose (CMC)
[8] = dose: 400.0 mg/kg/injection, schedule: Q01DX001 (ip), vehicle: carboxymethylcellulose (CMC)
[9] = dose: 100.0 mg/kg/injection, schedule: Q04DX003 (ip), vehicle: saline with Tween-80
[10] = dose: 200.0 mg/kg/injection, schedule: Q04DX003 (ip), vehicle: saline with Tween-80
[11] = dose: 400.0 mg/kg/injection, schedule: Q01DX009 (ip), vehicle: saline with Tween-80

C=Cc1ccccc1 (tested in a mixture with another compound)
T/C (dose: 75.0 mg/kg/injection, schedule: Q01DX001 (ip), vehicle: other): 101 % of control | T/C (dose: 150.0 mg/kg/injection, schedule: Q01DX001 (ip), vehicle: other): 97 % of control | T/C (dose: 300.0 mg/kg/injection, schedule: Q01DX001 (ip), vehicle: other): 87 % of control

Cc1cccc(C)c1NC(=S)Nc1ccccc1
T/C [1]: 101 % of control | T/C [2]: 105 % of control | T/C (dose: 400.0 mg/kg/injection, schedule: Q04DX002 (ip), vehicle: Klucel (hydroxypropylcellulose) (HPC)): 90 % of control

COc1ccc(NC(=O)Oc2ccc(OC)cc2)cc1
T/C (dose: 100.0 mg/kg/injection, schedule: Q01DX009 (ip), vehicle: Klucel (hydroxypropylcellulose) (HPC)): 103 % of control | T/C (dose: 100.0 mg/kg/injection, schedule: Q04DX003 (ip), vehicle: Klucel (hydroxypropylcellulose) (HPC)): 97 % of control | T/C (dose: 200.0 mg/kg/injection, schedule: Q01DX009 (ip), vehicle: Klucel (hydroxypropylcellulose) (HPC)): 95 % of control | T/C (dose: 200.0 mg/kg/injection, schedule: Q04DX003 (ip), vehicle: Klucel (hydroxypropylcellulose) (HPC)): 89 % of control | T/C (dose: 400.0 mg/kg/injection, schedule: Q01DX009 (ip), vehicle: Klucel (hydroxypropylcellulose) (HPC)): 89 % of control | T/C (dose: 400.0 mg/kg/injection, schedule: Q04DX003 (ip), vehicle: Klucel (hydroxypropylcellulose) (HPC)): 91 % of control

C=CC/C(=C/CCC)CCC
T/C [3]: 95 % of control | T/C [4]: 100 % of control | T/C [5]: 100 % of control

N=C(N)c1ccc(NC(=O)c2ccc(C(=O)Nc3ccc(C(=N)N)cc3)c(N)c2)cc1
T/C (dose: 62.0 mg/kg/injection, schedule: Q01DX Z (ip), vehicle: carboxymethylcellulose (CMC)): 106 % of control | T/C (dose: 125.0 mg/kg/injection, schedule: Q01DX Z (ip), vehicle: carboxymethylcellulose (CMC)): 118 % of control | T/C (dose: 500.0 mg/kg/injection, schedule: Q01DX Z (ip), vehicle: carboxymethylcellulose (CMC)): 113 % of control

Nc1ccc(C(F)(F)F)cc1[N+](=O)[O-]
T/C (dose: 100.0 mg/kg/injection, schedule: Q04DX002 (ip), vehicle: saline): 118 % of control | T/C (dose: 200.0 mg/kg/injection, schedule: Q04DX002 (ip), vehicle: saline): 103 % of control | T/C (dose: 400.0 mg/kg/injection, schedule: Q04DX002 (ip), vehicle: saline): 107 % of control

O=CN/N=C\c1cc2ccccc2c2ccccc12
T/C (dose: 50.0 mg/kg/injection, schedule: Q01DX001 (ip), vehicle: carboxymethylcellulose (CMC)): 96 % of control | T/C [6]: 93 % of control | T/C [7]: 93 % of control | T/C [8]: 87 % of control

O=[N+]([O-])c1ccc(C[N+]23CCN(CC2)CC3)cc1
T/C [3]: 96 % of control | T/C (dose: 50.0 mg/kg/injection, schedule: Q04DX003 (ip), vehicle: saline with Tween-80): 106 % of control | T/C [4]: 102 % of control | T/C [9]: 106 % of control | T/C [10]: 101 % of control

O=C(O)CCCCCN1C(=O)c2cccc([N+](=O)[O-])c2C1=O
T/C (dose: 100.0 mg/kg/injection, schedule: Q01DX001 (ip), vehicle: saline with Tween-80): 110 % of control | T/C (dose: 200.0 mg/kg/injection, schedule: Q01DX001 (ip), vehicle: saline with Tween-80): 109 % of control

CCCCN1CCC(N)=NC1=O
T/C (dose: 100.0 mg/kg/injection, schedule: Q01DX Z (ip), vehicle: saline): 100 % of control | T/C (dose: 200.0 mg/kg/injection, schedule: Q01DX Z (ip), vehicle: saline): 100 % of control

CCCCOB(CCl)OCCCC
T/C (dose: 6.25 mg/kg/injection, schedule: Q04DX003 (ip), vehicle: saline sonified): 103 % of control | T/C (dose: 12.5 mg/kg/injection, schedule: Q04DX003 (ip), vehicle: saline sonified): 97 % of control | T/C (dose: 25.0 mg/kg/injection, schedule: Q04DX003 (ip), vehicle: saline sonified): 100 % of control

CCN(C(=O)Nc1cccc(Cl)c1)c1ccccc1
T/C [4]: 90 % of control | T/C [9]: 96 % of control | T/C [5]: 90 % of control | T/C [10]: 97 % of control | T/C [11]: 86 % of control | T/C (dose: 400.0 mg/kg/injection, schedule: Q04DX003 (ip), vehicle: saline with Tween-80): 97 % of control

CNC(C)CC1CCCCC1 (stereo not drawn)
T/C (dose: 0.78 mg/kg/injection, schedule: Q04DX003 (ip), vehicle: saline): 94 % of control | T/C (dose: 1.56 mg/kg/injection, schedule: Q01DX009 (ip), vehicle: saline): 100 % of control | T/C (dose: 1.56 mg/kg/injection, schedule: Q04DX003 (ip), vehicle: saline): 98 % of control | T/C (dose: 3.12 mg/kg/injection, schedule: Q01DX009 (ip), vehicle: saline): 102 % of control | T/C (dose: 3.12 mg/kg/injection, schedule: Q04DX003 (ip), vehicle: saline): 98 % of control | T/C (dose: 6.25 mg/kg/injection, schedule: Q01DX009 (ip), vehicle: saline): 97 % of control | T/C (dose: 6.25 mg/kg/injection, schedule: Q04DX003 (ip), vehicle: saline): 98 % of control | T/C (dose: 12.5 mg/kg/injection, schedule: Q01DX009 (ip), vehicle: saline): 96 % of control | T/C (dose: 12.5 mg/kg/injection, schedule: Q04DX003 (ip), vehicle: saline): 100 % of control | T/C (dose: 25.0 mg/kg/injection, schedule: Q01DX009 (ip), vehicle: saline): 97 % of control | T/C (dose: 25.0 mg/kg/injection, schedule: Q04DX003 (ip), vehicle: saline with Tween-80): 94 % of control | T/C (dose: 50.0 mg/kg/injection, schedule: Q01DX009 (ip), vehicle: saline): 106 % of control

N#CC(Cc1ccccc1)c1ccccc1 (stereo not drawn)
T/C (dose: 50.0 mg/kg/injection, schedule: Q01DX001 (ip), vehicle: saline): 97 % of control | T/C (dose: 100.0 mg/kg/injection, schedule: Q01DX001 (ip), vehicle: saline): 106 % of control | T/C (dose: 200.0 mg/kg/injection, schedule: Q01DX001 (ip), vehicle: saline): 101 % of control

c1coc(NC2CCCCC2)n1
T/C [4]: 100 % of control | T/C [5]: 92 % of control | T/C [11]: 86 % of control

Fc1ccc(CSc2ncnc3c2ncn3C2CCCCO2)cc1 (stereo not drawn)
T/C (dose: 3.0 mg/kg/injection, schedule: Q01DX015 (ip), vehicle: carboxymethylcellulose (CMC)): 97 % of control | T/C (dose: 6.0 mg/kg/injection, schedule: Q01DX015 (ip), vehicle: carboxymethylcellulose (CMC)): 97 % of control | T/C (dose: 12.0 mg/kg/injection, schedule: Q01DX015 (ip), vehicle: carboxymethylcellulose (CMC)): 98 % of control | T/C (dose: 25.0 mg/kg/injection, schedule: Q01DX015 (ip), vehicle: carboxymethylcellulose (CMC)): 102 % of control | T/C (dose: 50.0 mg/kg/injection, schedule: Q01DX015 (ip), vehicle: carboxymethylcellulose (CMC)): 101 % of control | T/C [6]: 96 % of control | T/C (dose: 100.0 mg/kg/injection, schedule: Q01DX015 (ip), vehicle: carboxymethylcellulose (CMC)): 103 % of control | T/C [7]: 96 % of control | T/C (dose: 200.0 mg/kg/injection, schedule: Q01DX015 (ip), vehicle: carboxymethylcellulose (CMC)): 119 % of control | T/C [8]: 102 % of control | T/C (dose: 400.0 mg/kg/injection, schedule: Q01DX015 (ip), vehicle: carboxymethylcellulose (CMC)): 166 % of control | T/C (dose: 800.0 mg/kg/injection, schedule: Q01DX001 (ip), vehicle: carboxymethylcellulose (CMC)): 102 % of control | T/C (dose: 1600.0 mg/kg/injection, schedule: Q01DX001 (ip), vehicle: carboxymethylcellulose (CMC)): 112 % of control

CN(C)C1C=CS(=O)(=O)C1 (stereo not drawn)
T/C (dose: 100.0 mg/kg/injection, schedule: Q01DX001 (ip), vehicle: Klucel (hydroxypropylcellulose) (HPC)): 106 % of control | T/C (dose: 200.0 mg/kg/injection, schedule: Q01DX001 (ip), vehicle: Klucel (hydroxypropylcellulose) (HPC)): 106 % of control

CCOC(=O)c1cccnc1NC(=O)c1ccccc1
T/C (dose: 50.0 mg/kg/injection, schedule: Q04DX002 (ip), vehicle: Klucel (hydroxypropylcellulose) (HPC)): 97 % of control | T/C [1]: 97 % of control and 103 % of control | T/C [2]: 100 % of control and 101 % of control | T/C (dose: 800.0 mg/kg/injection, schedule: Q04DX002 (ip), vehicle: Klucel (hydroxypropylcellulose) (HPC)): 105 % of control

O=C(COc1cc(Cl)c(Cl)cc1Cl)OCCOc1cc(Cl)c(Cl)cc1Cl
T/C (dose: 7.5 mg/kg/injection, schedule: Q01DX001 (ip), vehicle: saline): 97 % of control | T/C (dose: 15.0 mg/kg/injection, schedule: Q01DX001 (ip), vehicle: saline): 95 % of control | T/C (dose: 30.0 mg/kg/injection, schedule: Q01DX001 (ip), vehicle: saline): 93 % of control
